Drawing on patent US20180057465A1, “Inhibitors of Necroptosis” (Catalyst Therapeutics Pty Ltd, priority 2015, published 2018), this text covers IC50 for 24 compounds.

For test [1], the system named is U937 human histiocytic leukemia cell line. The experiment in a line: Assay 1: inhibition of TSQ induced necroptosis, 96 well plate format. Type of test: cell-based. The procedure: For in vitro analysis, the necroptosis inhibition may be determined by assays used to measure TSQ-induced necroptosis, as described in the biological tests defined herein.
(§1) Assay 1: Screening Compounds for Inhibition of TSQ Induced Necroptosis, 96 Well Plate Format.
(§2) Cell Line ID: […] human histiocytic leukemia cell line.
(§3) Cell Concentration (cells/well): 35,000 per well in 120 μL of media, counted and plated immediately prior to addition of inhibitor and death stimuli. Final well volume of 150 μL after addition of compounds and death stimuli
(§4) Cell growth medium: HTRPMI (WEHI Media kitchen, contains L-Glutamine and penicillin, streptomycin)—supplemented with 7.4% v/v FCS (Gibco, Precision Plus. Lot #1221437)
(§5) Incubation time (hours): 48 hours following addition of compounds and death stimuli
(§6) Compound Concentrations—Log Titrations:
(§7) DMSO final concentration (% v/v): 1.2% in 10 μM well to 0.2% in the control well.
Compounds that are in the Death Stimulation Cocktail and Their Final Concentrations:
hTNF-Fc (100 ng/ml)—produced by standard procedures as shown in Bossen et al., J Biol Chem, 2006, 281(20), 13964-13971.
Compound A (500 nM)—Smac mimetic, Tetralogic
Q-VD-OPh (10 μM)—MP Biomedicals
(§8) Cells treated with PI staining (1 μg/ml) and analysed by flow cytometry

Test [2] has the same test system. In words: Off-target effect (cell based assay), reported with assay 1. The procedure:
as §1, §2, §3, §4, §5, §6, §7, §8

[3] abbreviates: U-937, Table 1, assay 1, hTNF-Fc 100 ng/ml, Compound A 500 nM, Q-VD-OPh 10 μM, 48 hours, PI staining, flow cytometry, read-out: Inhibition of TSQ-induced necroptosis (cell based assay) IC50.
Where [4] appears, read: U-937, Table 1, assay 1, read-out: Off-target effect (cell based assay) IC50.
The mark [5] stands for this setting: U-937, comparison tables of the description, values as in Table 1 (assay 1), read-out: IC50 (nM) Necroptosis inhibition.
[6] abbreviates: U-937, comparison tables of the description, values as in Table 1 (assay 1), read-out: IC50 (nM) Off-Target Effect.

In general, IC50 refers to the concentration that inhibits the measured activity by half.

As to `CN(c1ccc(NC(=O)Nc2ccc(OC(F)(F)F)cc2)cc1)c1ccnc(Nc2cccc(O)c2)n1` [Compound 19, 1-(4-((2-(3-hydroxyphenylamino)pyrimidin-4-yl)(methyl)amino)phenyl)-3-(4-(trifluoromethoxy)phenyl)urea], the IC50 in test [1] (setting [3]) is 1160 nM; in test [2] (setting [4]), more than 10000 nM.
In the case of `CNC(=O)c1cc(Nc2nccc(N(C)c3ccc(NC(=O)Nc4cc(F)cc(C(F)(F)F)c4)cc3)n2)ccc1N1CCN(C)CC1` [Compound 31], the IC50 in test [1] (setting [3]) worked out at 13 nM.
For the compound `CN(c1ccc(NC(=O)Nc2ccc(OC(F)(F)F)cc2)cc1)c1nc(Nc2cccc(S(N)(=O)=O)c2)ncc1Cl` [Compound 2, 3-((5-Chloro-4-(methyl(4-(3-(4-(trifluoromethoxy)phenyl)ureido)phenyl)amino)pyrimidin-2-yl)amino) benzenesulfonamide], the IC50 in test [1] (setting [3]) stood at 29.5 nM; in test [1] (setting [5]), 29.5 nM; in test [2] (setting [4]) it was 2110 nM; in test [2] (setting [6]) it was 2110 nM.
For `Cc1ccc(Nc2nccc(N(C)c3ccc(NC(=O)Nc4ccc(OC(F)(F)F)cc4)cc3)n2)cc1CN(C)C` [Compound 1, 1-(4-((2-((3-((dimethylamino)methyl)-4-methylphenyl)amino)pyrimidin-4-yl)(methyl)amino)phenyl)-3-(4-(trifluoromethoxy)phenyl)urea], the figures for the 50% inhibitory concentration (IC50) in test [1] (setting [3]) and in test [2] (setting [4]) were 53 nM and 4680 nM, respectively.
Turning to `CNC(=O)c1cc(Nc2nccc(N(C)c3ccc(NC(=O)Nc4cc(F)cc(C(F)(F)F)c4)cc3)n2)ccc1N1CCOCC1` [Compound 27, 5-((4-((4-(3-(3-fluoro-5-(trifluoromethyl)phenyl)ureido)phenyl)(methyl)amino)pyrimidin-2-yl)amino)-N-methyl-2-morpholinobenzamide], the IC50 in test [1] (setting [3]) turned out to be 325 nM; in test [2] (setting [4]), 2700 nM.
For `CNC(=O)c1cc(Nc2nccc(N(C)c3ccc(NC(=O)Nc4ccc(OC(F)(F)F)cc4)cc3)n2)ccc1N1CCOCC1` [Compound 17, N-methyl-5-((4-(methyl(4-(3-(4-(trifluoromethoxy)phenyl)ureido)phenyl)amino)pyrimidin-2-yl)amino)-2-morpholinobenzamide], in that order: 38.3 nM and 5670 nM.
For `Cc1ccc(Nc2nccc(N(C)c3ccc(NC(=O)Nc4ccc(OC(F)(F)F)cc4)cc3)n2)cc1CN1CCN(C)CC1` [Compound 23, 1-(4-(methyl(2-((4-methyl-3-((4-methylpiperazin-1-yl)methyl)phenyl)amino)pyrimidin-4-yl)amino)phenyl)-3-(4-(trifluoromethoxy)phenyl)urea], in that order: 202 nM and 6380 nM.
For `Cc1ccc(Nc2nccc(N(C)c3ccc(NC(=O)Nc4cc(F)cc(C(F)(F)F)c4)cc3)n2)cc1C(=O)N1CCOCC1` [Compound 25, 1-(3-fluoro-5-(trifluoromethyl)phenyl)-3-(4-(methyl(2-((4-methyl-3-(morpholine-4-carbonyl)phenyl)amino)pyrimidin-4-yl)amino)phenyl)urea] the same measures were 9.2 nM and 2280 nM.
As to `CN(c1ccc(NC(=O)Nc2ccc(OC(F)(F)F)cc2)cc1)c1ccnc(Nc2cccc(C#N)c2)n1` [Compound 21, 1-(4-((2-(3-cyanophenylamino)pyrimidin-4-yl)(methyl)amino)phenyl)-3-(4-(trifluoromethoxy)phenyl)urea], the IC50 in test [1] (setting [3]) is 476 nM; in test [2] (setting [4]), more than 10000 nM.
For `CNC(=O)c1cc(Nc2nccc(N(C)c3ccc(NC(=O)Nc4cc(F)cc(C(F)(F)F)c4)cc3)n2)ccc1OC` [Compound 30, 5-((4-((4-(3-(3-fluoro-5-(trifluoromethyl)phenyl)ureido)phenyl)(methyl)amino)pyrimidin-2-yl)amino)-2-methoxy-N-methylbenzamide], in that order: 58 nM and 6680 nM.
For the compound `Cc1ccc(Nc2ncc(F)c(N(C)c3ccc(NC(=O)Nc4cc(F)cc(C(F)(F)F)c4)cc3)n2)cc1N1CCCC1=O` [Compound 24, 1-(4-((5-fluoro-2-((4-methyl-3-(2-oxopyrrolidin-1-yl)phenyl)amino)pyrimidin-4-yl)(methyl)amino)phenyl)-3-(3-fluoro-5-(trifluoromethyl)phenyl)urea], the IC50 worked out at 8.9 nM in test [1] (setting [3]) and 1240 nM in test [2] (setting [4]).
As for `CNC(=O)c1cc(Nc2nccc(N(C)c3ccc(NC(=O)Nc4cc(F)cc(C(F)(F)F)c4)cc3)n2)ccc1OCCN1CCCC1` [Compound 32, 5-((4-((4-(3-(3-fluoro-5-(trifluoromethyl)phenyl)ureido)phenyl)(methyl)amino)pyrimidin-2-yl)amino)-N-methyl-2-(2-(pyrrolidin-1-yl)ethoxy)benzamide], in test [1] (setting [3]), the IC50 turned out to be 40 nM.
Take `CNC(=O)c1cc(Nc2nccc(N(C)c3ccc(NC(=O)Nc4cc(Cl)cc(C(F)(F)F)c4)cc3)n2)ccc1C` [Compound 29, 5-((4-((4-(3-(3-chloro-5-(trifluoromethyl)phenyl)ureido)phenyl)(methyl)amino)pyrimidin-2-yl)amino)-N,2-dimethylbenzamide]: the figures for the IC50 in test [1] (setting [3]) and in test [2] (setting [4]) were 20 nM and 2050 nM, respectively.
For the compound `Cc1ccc(Nc2nccc(N(C)c3ccc(NC(=O)Nc4ccc(OC(F)(F)F)cc4)cc3)n2)cc1S(N)(=O)=O` [Compound 21 from AU 2014903569, reference compound], the IC50 in test [1] (setting [5]) is 72.7 nM; in test [2] (setting [6]) it was 3600 nM.
For `CN(c1ccc(NC(=O)Nc2ccc(OC(F)(F)F)cc2)cc1)c1nc(Nc2cccc(S(N)(=O)=O)c2)ncc1C(F)(F)F` [Compound 6a, 3-((4-(Methyl(4-(3-(4-(trifluoromethoxy)phenyl)ureido)phenyl)amino)-5-(trifluoromethyl)pyrimidin-2-yl)amino)benzenesulfonamide], in that order: more than 10000 nM and 5070 nM.
Consider `Cc1ccc(Nc2nccc(N(C)c3ccc(NC(=O)Nc4ccc(OC(F)(F)F)cc4)cc3)n2)cc1N1CCCC1=O` [Compound 7], for which the half-maximal inhibitory concentration (IC50) in test [1] (setting [3]) was 51.8 nM; in test [2] (setting [4]) it was more than 10000 nM.
For `CN(c1ccc(NC(=O)Nc2ccc(OC(F)(F)F)cc2)cc1)c1ccnc(Nc2cccc(N)c2)n1` [Compound 22, 1-(4-((2-(3-aminophenylamino)pyrimidin-4-yl)(methyl)amino)phenyl)-3-(4-(trifluoromethoxy)phenyl)urea] the same measures were 427 nM and more than 10000 nM.
For `COc1cccc(Nc2nccc(N(C)c3ccc(NC(=O)Nc4ccc(OC(F)(F)F)cc4)cc3)n2)c1` [Compound 20, 1-(4-((2-(3-methoxyphenylamino)pyrimidin-4-yl)(methyl)amino)phenyl)-3-(4-(trifluoromethoxy)phenyl)urea], in that order: 504 nM and more than 10000 nM.
Turning to `CNC(=O)c1cc(Nc2ncc(F)c(N(C)c3ccc(NC(=O)Nc4ccc(OC(F)(F)F)cc4)cc3)n2)ccc1C` [Compound 12, 5-((5-Fluoro-4-(methyl(4-(3-(4-(trifluoromethoxy)phenyl)ureido)phenyl)amino)pyrimidin-2-yl)amino)-N,2-dimethylbenzamide], the IC50 is 10.1 nM in test [1] (setting [3]), 10.1 nM in test [1] (setting [5]), more than 10000 nM in test [2] (setting [4]) and more than 10000 nM in test [2] (setting [6]).
As for `CNC(=O)c1cc(Nc2nccc(N(C)c3ccc(NC(=O)Nc4cc(F)cc(C(F)(F)F)c4)cc3)n2)ccc1C` [Compound 16, 5-(4-((4-(3-(3-fluoro-5-(trifluoromethyl)phenyl)ureido)phenyl)(methyl)amino)-pyrimidin-2-ylamino)-N,2-dimethylbenzamide], the IC50 in test [1] (setting [3]) was determined as 10.8 nM; in test [2] (setting [4]), 1230 nM.
Turning to `CNC(=O)c1cc(Nc2nccc(N(C)c3ccc(NC(=O)Nc4ccc(OC(F)(F)F)cc4)cc3)n2)ccc1C` [Compound 3, N-2-Dimethyl-5-((4-(methyl(4-(3-(4-(trifluoromethoxy)phenyl)ureido)phenyl)amino)pyrimidin-2-yl)amino)benzamide], the IC50 is 93.1 nM in test [1] (setting [3]), 93.1 nM in test [1] (setting [5]), more than 10000 nM in test [2] (setting [4]) and more than 10000 nM in test [2] (setting [6]).
Consider `CNC(=O)c1cc(Nc2ncc(F)c(N(C)c3ccc(NC(=O)Nc4cc(C(F)(F)F)ccc4F)cc3)n2)ccc1C` [Compound 15, 5-(5-fluoro-4-((4-(3-(2-fluoro-5-(trifluoromethyl)phenyl)ureido)phenyl)(methyl)amino)pyrimidin-2-ylamino)-N,2-dimethylbenzamide], for which the values for the IC50 in test [1] (setting [3]) and in test [2] (setting [4]) were less than 1 nM and 103 nM, respectively.
Consider `CN(c1ccc(NC(=O)Nc2ccc(OC(F)(F)F)cc2)cc1)c1nc(Nc2cccc(S(N)(=O)=O)c2)ncc1F` [Compound 5, 3-((5-Fluoro-4-(methyl(4-(3-(4-(trifluoromethoxy)phenyl)ureido)phenyl)amino)pyrimidin-2-yl)amino) benzenesulfonamide], for which the figures for the concentration for half-maximal inhibition (IC50) in test [1] (setting [3]) and in test [2] (setting [4]) were 30 nM and 3110 nM, respectively.
In the case of `CN(c1ccc(NC(=O)Nc2cc(C(F)(F)F)ccc2F)cc1)c1ccnc(Nc2cccc(S(N)(=O)=O)c2)n1` [Compound 3 from AU 2014903569, reference compound], the IC50 in test [2] (setting [6]) stood at 791 nM.
